In patent US5972894A, “Peptides having potassium channel opener activity” (Cytran, Inc., priority 1997, dated 1999):

System: ischemic myocardium
Test: Inotropic function and arrhythmias of ischemic isolated rat heart during reperfusion
Settings: for Diastolic Pressure in Ischemic Left Ventricle (% of Preischemic Mean Value) / Evolving Pressure in Ischemic Left Ventricle (% of Preischemic Mean Value) / Heart Rate during Reperfusion (% of Preischemic Mean Value) / Maximal Rate of Increase of Left Ventricle Pressure (% of Preischemic Mean Value) / Maximal Rate of Left Ventricle Pressure Decrease (% of Preischemic Mean Value) / Systolic Pressure in Ischemic Left Ventricle (% of Preischemic Values): 14.0 mg/l
Description: Rat hearts were surgically isolated from white random-bred rats weighing approximately 250 g. The isolated hearts were perfused with a standard oxygenated (95% O2 and 5% CO2) Krebs-Henseleit solution in a retrograde manner (i.e., according to Langendorff and using a constant perfusate pressure of 80 cm of water). The hearts maintained a steady spontaneous contraction rate. A latex balloon catheter connected to a pressure transducer (EMT-746, Siemens-Elema, Sweden) was inserted into the left ventricle of each heart to measure the inotropic function of the heart (as described in Example 3, above). The left ventricle pressure variation curve was recorded using a polygraph.
Stage I ("adaptation regimen") consisted of a 30-minute adaptation of the respective rat hearts to the perfusion regimen. The baseline parameters for the inotropic function of each heart were recorded to establish the preischemic values for the following measured parameters: (i) the systolic pressure in the left ventricle (Psyst. mm Hg); (ii) the diastolic pressure in the left ventricle (Pdiast. mm Hg); (iii) the evolving pressure (Pev. =Psyst. -Pdist. mm Hg); (iv) the maximal rate of increase of left ventricle pressure (+dp/dtmax mm Hg/sec); and (v) the maximal rate of decrease of left ventricle pressure (-dp/dtmax mm Hg/sec). In addition, the heart rate (HR) of each heart was determined from the recordings made of the variations in the left ventricle pressure over time. In Stage II ("ischemic simulation"), ischemia was induced in each heart by shutting off the supply of the perfusion solution to the heart. Approximately 30 minutes later, Stage III ("reperfusion regimen") was initiated by restarting the reperfusion and including in the perfusate solution a test or control substance at one of the following respective concentrations: a perfusate solution of a test substance comprised 0.06, 0.6, or 6.0 mg/l GE, or 0.06, 0.6, or 6.0 mg/l VT, respectively; a perfusate solution of the positive control substance comprised 14 mg/l inosine. Inosine is a nucleoside preparation that produces a favorable inotropic effect on both normal and ischemic myocardium while inducing no rhythm disturbances or acceleration of ischemic contracture development. Woollard et al., Cardiovasc. Res. 15: 659-67 (1981). Inosine was obtained from Sigma Chemical Company, USA (Cat. Code I-4125; lot number 81H0227). The negative control substance comprised reperfusion using a standard oxygenated Krebs-Henseleit solution.
For each heart, the inotropic function of the myocardium was evaluated by measuring the parameters (i) through (v), discussed above, and the heart rate. These six parameters were recorded continuously throughout the study (i.e., beginning with Stage I and continuing through Stage III). The recordings were analyzed at the following times: (a) immediately before beginning Stage II (that is, after the 30-minute Stage I adaptation period, but before stopping perfusion); and (b) at 1, 5, 10, 20, and 30 minutes into the Stage III reperfusion.
The frequency and duration of rhythm disturbances in the 30-minute Stage III reperfusion period were determined by measuring the following parameters: (i) the number of ventricular extrasystoles; (ii) the overall duration of ventricular tachycardias (in seconds); and (iii) the overall duration of ventricular fibrillation (in seconds). Each dose of the test substance was tested on nine isolated hearts.

[1] = 14.1 mg/l, 30-minute reperfusion

OC[C@H]1O[C@@H](n2cnc3c(O)ncnc32)[C@H](O)[C@@H]1O [Inosine, reference compound]
Diastolic Pressure in Ischemic Left Ventricle (% of Preischemic Mean Value) (1 min reperfusion): 92.35%
Evolving Pressure in Ischemic Left Ventricle (% of Preischemic Mean Value) (1 min reperfusion): 57.13%
Heart Rate during Reperfusion (% of Preischemic Mean Value) (1 min reperfusion): 45.37%
Maximal Rate of Increase of Left Ventricle Pressure (% of Preischemic Mean Value) (1 min reperfusion): 50.85%
Maximal Rate of Left Ventricle Pressure Decrease (% of Preischemic Mean Value) (1 min reperfusion): 41.91%
Systolic Pressure in Ischemic Left Ventricle (% of Preischemic Values) (1 min reperfusion): 62.15%
Diastolic Pressure in Ischemic Left Ventricle (% of Preischemic Mean Value) (5 min reperfusion): 111.83%
Evolving Pressure in Ischemic Left Ventricle (% of Preischemic Mean Value) (5 min reperfusion): 57.59%
Heart Rate during Reperfusion (% of Preischemic Mean Value) (5 min reperfusion): 69.97%
Maximal Rate of Increase of Left Ventricle Pressure (% of Preischemic Mean Value) (5 min reperfusion): 54.25%
Maximal Rate of Left Ventricle Pressure Decrease (% of Preischemic Mean Value) (5 min reperfusion): 65.94%
Systolic Pressure in Ischemic Left Ventricle (% of Preischemic Values) (5 min reperfusion): 66.17%
Diastolic Pressure in Ischemic Left Ventricle (% of Preischemic Mean Value) (10 min reperfusion): 139.32%
Evolving Pressure in Ischemic Left Ventricle (% of Preischemic Mean Value) (10 min reperfusion): 82.33%
Heart Rate during Reperfusion (% of Preischemic Mean Value) (10 min reperfusion): 67.52%
Maximal Rate of Increase of Left Ventricle Pressure (% of Preischemic Mean Value) (10 min reperfusion): 82.35%
Maximal Rate of Left Ventricle Pressure Decrease (% of Preischemic Mean Value) (10 min reperfusion): 78.85%
Systolic Pressure in Ischemic Left Ventricle (% of Preischemic Values) (10 min reperfusion): 86.05%
Diastolic Pressure in Ischemic Left Ventricle (% of Preischemic Mean Value) (20 min reperfusion): 148.63%
Evolving Pressure in Ischemic Left Ventricle (% of Preischemic Mean Value) (20 min reperfusion): 94.19%
Heart Rate during Reperfusion (% of Preischemic Mean Value) (20 min reperfusion): 79.97%
Maximal Rate of Increase of Left Ventricle Pressure (% of Preischemic Mean Value) (20 min reperfusion): 83.58%
Maximal Rate of Left Ventricle Pressure Decrease (% of Preischemic Mean Value) (20 min reperfusion): 91.83%
Systolic Pressure in Ischemic Left Ventricle (% of Preischemic Values) (20 min reperfusion): 99.29%
Diastolic Pressure in Ischemic Left Ventricle (% of Preischemic Mean Value) (30 min reperfusion): 149.42%
Evolving Pressure in Ischemic Left Ventricle (% of Preischemic Mean Value) (30 min reperfusion): 91.68%
Heart Rate during Reperfusion (% of Preischemic Mean Value) (30 min reperfusion): 75.60%
Maximal Rate of Increase of Left Ventricle Pressure (% of Preischemic Mean Value) (30 min reperfusion): 77.85%
Maximal Rate of Left Ventricle Pressure Decrease (% of Preischemic Mean Value) (30 min reperfusion): 93.88%
Systolic Pressure in Ischemic Left Ventricle (% of Preischemic Values) (30 min reperfusion): 96.62%
-dp/dtmax, % of preischemic value (14 mg/l, after approximately 10 to 20 minutes): about 80%
Number of Ventricular Extrasystoles [1]: 230.4
Overall Duration of Ventricular Fibrillation [1]: 52.9 s
Overall Duration of Ventricular Tachycardia [1]: 1.3 s
